In ChEMBL document CHEMBL3600310 (J Med Chem, 2015):

Legend:
Type in all cases: functional, cell-based
A549 = assay: Cytotoxicity against human A549 cells after 72 hrs by MTT assay; details: A549, 72 h
HCT-116 = assay: Cytotoxicity against human HCT116 cells after 72 hrs by MTT assay; details: HCT-116, 72 h
MDA-MB-435 = assay: Cytotoxicity against human MDA-MB-435 cells after 72 hrs by MTT assay; details: MDA-MB-435, 72 h

Structure (SMILES) | IC50 (A549) | IC50 (HCT-116) | IC50 (MDA-MB-435)
COc1cccc2c1OC1c3[nH]c4ccccc4c3CCN1C2=O (stereo not drawn) | 26.8 µM | 2.21 µM | 16.9 µM
CN1c2ccccc2C(=O)N2CCCc3c(oc4ccc(O)cc34)C21 (stereo not drawn) | > 200 µM | > 200 µM | > 200 µM
O=C1c2cc(Br)ccc2OC2c3[nH]c4ccc(O)cc4c3CCN12 (stereo not drawn) | 0.06 µM | < 0.003 µM | < 0.003 µM
O=C1c2cccc(O)c2OC2c3[nH]c4ccc(O)cc4c3CCN12 (stereo not drawn) | > 200 µM | 53.4 µM | 66.2 µM
Cc1cccc2c1C(=O)N1CCc3c([nH]c4ccc(O)cc34)C1O2 (stereo not drawn) | 1.8 µM | < 0.003 µM | < 0.003 µM
CN1c2ccoc2C(=O)N2CCc3c([nH]c4ccccc34)C21 (stereo not drawn) | > 200 µM | 178 µM | 182 µM
Cc1ccc2c(c1)OC1c3[nH]c4ccccc4c3CCN1C2=O (stereo not drawn) | 62.5 µM | 25.5 µM | 97.2 µM
COc1ccc2[nH]c3c(c2c1)CCN1C(=O)c2cccc(OC)c2OC31 (stereo not drawn) | > 200 µM | 52.7 µM | 80.1 µM
COc1ccc2[nH]c3c(c2c1)CCN1C(=O)c2ccsc2N(C)C31 (stereo not drawn) | 26.9 µM | 14.1 µM | 36.2 µM
CCCNc1ccc2c(c1)C(=O)N1CCc3c([nH]c4ccccc34)C1O2 (stereo not drawn) | 173 µM | 16.7 µM | > 200 µM
COc1ccc2[nH]c3c(c2c1)CCN1C(=O)c2c(ccn2C)N(C)C31 (stereo not drawn) | 28.5 µM | 54.1 µM | 42 µM
O=C1c2ccc(F)cc2OC2c3[nH]c4ccccc4c3CCN12 (stereo not drawn) | 95 µM | 6.7 µM | 171 µM
COc1ccc2[nH]c3c(c2c1)CCCN1C(=O)c2ccccc2N(C)C31 (stereo not drawn) | > 200 µM | > 200 µM | > 200 µM
COc1ccc2[nH]c3c(c2c1)CCN1C(=O)c2cc(F)ccc2OC31 (stereo not drawn) | 13.1 µM | 25.1 µM | 36.4 µM
CN1c2ccn(C)c2C(=O)N2CCc3c([nH]c4ccccc34)C21 (stereo not drawn) | > 200 µM | 76.5 µM | 207 µM
Cc1cccc2c1C(=S)N1CCc3c([nH]c4ccccc34)C1O2 (stereo not drawn) | 11 µM | 3.8 µM | 4.5 µM
COc1ccc2[nH]c3c(c2c1)CCN1C(=O)c2cc(Cl)ccc2OC31 (stereo not drawn) | 0.05 µM | 1 µM | 2.4 µM
COc1ccc2[nH]c3c(c2c1)CCN1C(=O)c2ccc(C)cc2OC31 (stereo not drawn) | > 200 µM | > 200 µM | 198 µM
COc1ccc2[nH]c3c(c2c1)CCN1C(=O)c2cc([N+](=O)[O-])ccc2OC31 (stereo not drawn) | > 200 µM | > 200 µM | > 200 µM
COc1ccc2c(c1)C(=O)N1CCc3c([nH]c4ccc(OC)cc34)C1O2 (stereo not drawn) | 9.5 µM | 23.7 µM | 10.1 µM
O=C1c2ccc(O)cc2OC2c3[nH]c4ccccc4c3CCN12 (stereo not drawn) | 17.5 µM | 54.1 µM | 29.3 µM
O=C1c2cc(I)cc(I)c2OC2c3[nH]c4ccccc4c3CCN12 (stereo not drawn) | > 200 µM | 24.4 µM | > 200 µM
COc1ccc2[nH]c3c(c2c1)CCN1C(=O)c2cc(Br)ccc2OC31 (stereo not drawn) | 2.6 µM | 5.4 µM | 7.1 µM
COc1ccc2[nH]c3c(c2c1)CCN1C(=O)c2c(ccc4ccccc24)OC31 (stereo not drawn) | > 200 µM | > 200 µM | 31 µM

Structure (SMILES) | IC50 (A549) | IC50 (HCT-116) | IC50 (MDA-MB-435)
CN1c2ccn(C)c2C(=O)N2CCc3c([nH]c4ccc(O)cc34)C21 (stereo not drawn) | 5 µM | 15.4 µM | 11.7 µM
O=C1c2cc(O)ccc2OC2c3[nH]c4ccccc4c3CCN12 (stereo not drawn) | 16.2 µM | 1.9 µM | 11.5 µM
O=C1c2cc(Br)ccc2OC2c3[nH]c4ccccc4c3CCN12 (stereo not drawn) | 1.6 µM | 13.8 µM | 3.7 µM
O=C1c2ccccc2OC2c3[nH]c4ccc(Cl)cc4c3CCN12 (stereo not drawn) | 3.49 µM | 2.1 µM | 5.59 µM
O=C1c2ccc(C(F)(F)F)cc2OC2c3[nH]c4ccccc4c3CCN12 (stereo not drawn) | 25.8 µM | 23.3 µM | 21.9 µM
O=C1c2cccc(O)c2OC2c3[nH]c4ccccc4c3CCN12 (stereo not drawn) | 103 µM | > 200 µM | 42.3 µM
O=C1c2cc(Cl)cc(Cl)c2OC2c3[nH]c4ccc(O)cc4c3CCN12 (stereo not drawn) | 8.6 µM | 7 µM | 0.3 µM
CN1c2ccsc2C(=O)N2CCc3c([nH]c4ccccc34)C21 (stereo not drawn) | 111 µM | 192 µM | > 200 µM
CCc1c2c(nc3ccc(OC(=O)N4CCC(N5CCCCC5)CC4)cc13)-c1cc3c(c(=O)n1C2)COC(=O)[C@]3(O)CC [IRINOTECAN] | 20.1 µM | 18.6 µM | 6.3 µM
COc1ccc2[nH]c3c(c2c1)CCN1C(=O)c2ccc(F)cc2OC31 (stereo not drawn) | > 200 µM | 37.1 µM | 157 µM
COc1ccc2[nH]c3c(c2c1)CCN1C(=O)c2cscc2N(C)C31 (stereo not drawn) | 32.3 µM | 94.9 µM | 49 µM
O=C1c2ccc(Cl)cc2OC2c3[nH]c4ccccc4c3CCN12 (stereo not drawn) | 58.6 µM | 40.6 µM | 34.2 µM
O=C1c2c(F)cccc2OC2c3[nH]c4ccccc4c3CCN12 (stereo not drawn) | 35.1 µM | 31 µM | 71 µM
COc1ccc2c(c1)OC1c3[nH]c4ccc(OC)cc4c3CCN1C2=O (stereo not drawn) | > 200 µM | > 200 µM | > 200 µM
CN1c2ccccc2C(=O)N2CCCc3c([nH]c4ccc(O)cc34)C21 (stereo not drawn) | 32.4 µM | 59.8 µM | 69.2 µM
CCCN(CCC)c1ccc2c(c1)C(=O)N1CCc3c([nH]c4ccccc34)C1O2 (stereo not drawn) | > 200 µM | 2.3 µM | > 200 µM
CN1c2ccsc2C(=O)N2CCc3c([nH]c4ccc(O)cc34)C21 (stereo not drawn) | 15.8 µM | 23.6 µM | > 200 µM
COc1ccc2c(c1)OC1c3[nH]c4ccccc4c3CCN1C2=O (stereo not drawn) | 174 µM | 71.2 µM | 52.3 µM
CC(C)C(=O)Nc1ccc2c(c1)C(=O)N1CCc3c([nH]c4ccccc34)C1O2 (stereo not drawn) | 28.4 µM | 9.4 µM | 11.7 µM
CC(C)CNc1ccc2c(c1)C(=O)N1CCc3c([nH]c4ccccc34)C1O2 (stereo not drawn) | > 200 µM | 5.3 µM | > 200 µM
COc1ccc2c(c1)C(=O)N1CCc3c([nH]c4ccccc34)C1O2 (stereo not drawn) | 14.8 µM | 25.6 µM | > 200 µM
O=C1c2cc(F)ccc2OC2c3[nH]c4ccccc4c3CCN12 (stereo not drawn) | 6.6 µM | 5.8 µM | 46.1 µM
O=C1c2cc(Cl)ccc2OC2c3[nH]c4ccccc4c3CCN12 (stereo not drawn) | 0.05 µM | 1.4 µM | 0.6 µM
O=C1c2ccccc2OC2c3[nH]c4ccccc4c3CCN12 (stereo not drawn) | 2.4 µM | 3.1 µM | 3 µM

Structure (SMILES) | IC50 (A549) | IC50 (HCT-116) | IC50 (MDA-MB-435)
O=C1c2c(ccc3ccccc23)OC2c3[nH]c4ccc(O)cc4c3CCN12 (stereo not drawn) | 3.1 µM | 6.3 µM | 2.7 µM
CCNc1ccc2c(c1)C(=O)N1CCc3c([nH]c4ccccc34)C1O2 (stereo not drawn) | > 200 µM | 39.4 µM | > 200 µM
CN1c2cscc2C(=O)N2CCc3c([nH]c4ccc(O)cc34)C21 (stereo not drawn) | 3.9 µM | 4.8 µM | 32.3 µM
COc1ccc2[nH]c3c(c2c1)CCN1C(=O)c2ccccc2[C@H]31 | 193 µM | 30.9 µM | > 200 µM
Cc1cccc2c1C(=O)N1CCc3c([nH]c4ccccc34)C1O2 (stereo not drawn) | > 200 µM | 38.1 µM | > 200 µM
O=C1c2ccc(C(F)(F)F)cc2OC2c3[nH]c4ccc(O)cc4c3CCN12 (stereo not drawn) | 14.7 µM | 10.9 µM | 10.5 µM
COc1ccc2[nH]c3c(c2c1)CCN1C(=O)c2cc(N)ccc2OC31 (stereo not drawn) | 114 µM | 42.8 µM | 132 µM
COc1ccc2[nH]c3c(c2c1)CCN1C(=O)c2sccc2N(C)C31 (stereo not drawn) | > 200 µM | > 200 µM | > 200 µM
S=C1c2ccccc2OC2c3[nH]c4ccccc4c3CCN12 (stereo not drawn) | 7.7 µM | 5.6 µM | 4.8 µM
COc1ccc2[nH]c3c(c2c1)CCN1C(=O)c2ccc4ccccc4c2OC31 (stereo not drawn) | > 200 µM | > 200 µM | > 200 µM
O=C1c2ccc(Cl)cc2OC2c3[nH]c4ccc(O)cc4c3CCN12 (stereo not drawn) | 10.6 µM | 18.7 µM | 7.1 µM
O=C1c2cc(Cl)cc(Cl)c2OC2c3[nH]c4ccccc4c3CCN12 (stereo not drawn) | 1.8 µM | 6.7 µM | 14.2 µM
Nc1ccc2c(c1)C(=O)N1CCc3c([nH]c4ccccc34)C1O2 (stereo not drawn) | 2.7 µM | 2.3 µM | 9.1 µM
COc1ccc2[nH]c3c(c2c1)CCN1C(=O)c2cc4ccccc4cc2OC31 (stereo not drawn) | > 200 µM | 58 µM | 34.8 µM
O=C1c2cc3ccccc3cc2OC2c3[nH]c4ccc(O)cc4c3CCN12 (stereo not drawn) | 5.6 µM | 5.1 µM | 5.1 µM
Cc1ccc2c(c1)OC1c3[nH]c4ccccc4c3CCN1C2=S (stereo not drawn) | 65.2 µM | 44.4 µM | 60.3 µM
COc1ccc2oc3c(c2c1)CCCN1C(=O)c2ccccc2N(C)C31 (stereo not drawn) | 6.2 µM | 5.3 µM | 28.4 µM
COc1ccc2[nH]c3c(c2c1)CCN1C(=O)c2ccccc2OC31 (stereo not drawn) | > 200 µM | > 200 µM | > 200 µM
O=C1c2cc([N+](=O)[O-])ccc2OC2c3[nH]c4ccccc4c3CCN12 (stereo not drawn) | > 200 µM | > 200 µM | > 200 µM
COc1ccc2[nH]c3c(c2c1)CCN1C(=O)c2ccc(Cl)cc2OC31 (stereo not drawn) | 3.8 µM | 8.7 µM | 4.6 µM
COc1ccc2[nH]c3c(c2c1)CCN1C(=O)c2ccccc2C31O (stereo not drawn) | > 200 µM | > 200 µM | > 200 µM
COc1ccc2[nH]c3c(c2c1)CCN1C(=O)c2ccc(C(F)(F)F)cc2OC31 (stereo not drawn) | 50.5 µM | 31.7 µM | 26.2 µM
CN1c2ccccc2C(=O)N2CCc3c([nH]c4ccccc34)[C@@H]21 [EVODIAMINE] | > 200 µM | > 200 µM | 22.1 µM
